{
  "source": "ChEMBL document CHEMBL1142773",
  "about": "“1-(4-Amino-phenyl)-pyrrolidin-3-yl-amine and 6-(3-amino-pyrrolidin-1-yl)-pyridin-3-yl-amine derivatives as melanin-concentrating hormone receptor-1 antagonists” (Bioorg Med Chem Lett, 2005)",
  "data": [
    {"target": "T1, Melanin-concentrating hormone receptor 1 (Homo sapiens, UniProt Q99705)", "T1 sequence (Q99705 whole entry)": "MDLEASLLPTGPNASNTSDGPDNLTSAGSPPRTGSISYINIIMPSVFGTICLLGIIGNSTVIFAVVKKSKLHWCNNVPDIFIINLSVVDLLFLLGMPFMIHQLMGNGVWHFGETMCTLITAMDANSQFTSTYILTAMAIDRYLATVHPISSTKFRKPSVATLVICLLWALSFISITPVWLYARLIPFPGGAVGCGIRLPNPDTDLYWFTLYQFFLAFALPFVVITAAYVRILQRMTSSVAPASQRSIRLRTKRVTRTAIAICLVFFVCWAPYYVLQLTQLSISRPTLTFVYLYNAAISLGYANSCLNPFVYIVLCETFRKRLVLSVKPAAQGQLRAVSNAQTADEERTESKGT", "assay": "Binding affinity towards human MCH-R1 evaluated by its ability to displace radioligand [125I]Tyr13]-MCH", "units": {"Ki": "nM"}, "values": [
      {"compound": "CN(C)C1CCN(c2ccc(NC(=O)c3ccc(-c4cnco4)cc3)cc2)C1", "note": "(stereo unspecified)", "Ki": "> 10000"},
      {"compound": "CN(C)C1CCN(c2ccc(NC(=O)CCC(=O)c3ccc(Cl)cc3)cc2)C1", "note": "(stereo unspecified)", "Ki": 13},
      {"compound": "CN(C)C1CCN(c2ccc(NC(=O)c3ccc(-n4ccnc4)cc3)cc2)C1", "note": "(stereo unspecified)", "Ki": "> 10000"},
      {"compound": "CN(C)C1CCN(c2ccc(NC(=O)c3ccc(Oc4ccccc4)cc3)cc2)C1", "note": "(stereo unspecified)", "Ki": "> 10000"},
      {"compound": "CN(C)C1CCN(c2ccc(NC(=O)CCCC(=O)c3ccccc3)cc2)C1", "note": "(stereo unspecified)", "Ki": 250},
      {"compound": "CN(C)C1CCN(c2ccc(NC(=O)Cc3ccc(-c4ccccc4)cc3)cc2)C1", "note": "(stereo unspecified)", "Ki": 4300},
      {"compound": "CCN1CCN(c2ccc(C(=O)Nc3ccc(N4CCC(N(C)C)C4)cc3)cn2)CC1", "note": "(stereo unspecified)", "Ki": "> 10000"},
      {"compound": "CN(C)C1CCN(c2ccc(NC(=O)c3ccc4c(c3)C(=O)c3ccccc3-4)cc2)C1", "note": "(stereo unspecified)", "Ki": "> 10000"},
      {"compound": "CN(CCCc1ccccc1)C1CCN(c2ccc(NC(=O)c3ccc(-c4ccccc4)cc3)cc2)C1", "note": "(stereo unspecified)", "Ki": 8.6},
      {"compound": "CN(C)C1CCN(c2ccc(NC(=O)c3ccc(-c4ccccc4)nc3)cc2)C1", "note": "(stereo unspecified)", "Ki": 110},
      {"compound": "CN(C)C1CCN(c2ccc(NC(=O)C3CCC(c4ccccc4)CC3)cc2)C1", "note": "(stereo unspecified)", "Ki": 14},
      {"compound": "CCN(C)C1CCN(c2ccc(NC(=O)c3ccc(-c4ccccc4)cc3)cc2)C1", "note": "(stereo unspecified)", "Ki": 5.9},
      {"compound": "CNC1CCN(c2ccc(NC(=O)c3ccc(-c4ccccc4)cc3)cc2)C1", "note": "(stereo unspecified)", "Ki": 3.1},
      {"compound": "CN(C)C1CCN(c2ccc(NC(=O)c3ccc(-c4ccccc4)cc3)cc2)C1", "note": "(stereo unspecified)", "Ki": 5.2},
      {"compound": "CN(CC1CC1)C1CCN(c2ccc(NC(=O)c3ccc(-c4ccccc4)cc3)cc2)C1", "note": "(stereo unspecified)", "Ki": 5.5},
      {"compound": "CN(C)C1CCN(c2ccc(NC(=O)c3ccc(N4CCCCC4)nc3)cc2)C1", "note": "(stereo unspecified)", "Ki": 2400},
      {"compound": "CN(Cc1ccccn1)C1CCN(c2ccc(NC(=O)c3ccc(-c4ccccc4)cc3)cc2)C1", "note": "(stereo unspecified)", "Ki": 130},
      {"compound": "CN(C(=O)OC(C)(C)C)C1CCN(c2ccc(NC(=O)c3ccc(-c4ccccc4)cc3)cc2)C1", "note": "(stereo unspecified)", "Ki": "> 10000"},
      {"compound": "CN(Cc1ccccc1)C1CCN(c2ccc(NC(=O)c3ccc(-c4ccccc4)cc3)cc2)C1", "note": "(stereo unspecified)", "Ki": 31},
      {"compound": "COc1ccc(CCCNC(=O)Nc2ccc(N3CCC(N(C)C)C3)cc2)cc1", "note": "(stereo unspecified)", "Ki": 52},
      {"compound": "CN(C)C1CCN(c2ccc(NC(=O)NCCCc3ccccc3)cc2)C1", "note": "(stereo unspecified)", "Ki": 43},
      {"compound": "CC(=O)N(C)C1CCN(c2ccc(NC(=O)c3ccc(-c4ccccc4)cc3)cc2)C1", "note": "(stereo unspecified)", "Ki": 3000},
      {"compound": "CN(C)C1CCN(c2ccc(NC(=O)c3ccc(-c4cccs4)cc3)cc2)C1", "note": "(stereo unspecified)", "Ki": 34},
      {"compound": "CN(C)C1CCN(c2ccc(NC(=O)C3CCC(c4ccc(Cl)cc4)CC3)cc2)C1", "note": "(stereo unspecified)", "Ki": 12},
      {"compound": "COc1ccc(-c2ccc(C(=O)Nc3ccc(N4CCC(N(C)C)C4)cc3)cn2)cc1", "note": "(stereo unspecified)", "Ki": 16}
    ]},
    {"target": "T1, Melanin-concentrating hormone receptor 1", "assay": "Inhibitory concentration against human MCH-R1-stimulated [Ca2+] influx", "units": {"IC50": "nM"}, "values": [
      {"compound": "CNC1CCN(c2ccc(NC(=O)c3ccc(-c4ccccc4)cc3)cc2)C1", "note": "(stereo unspecified)", "IC50": 166}
    ]}
  ]
}
